Marks after values point to notes of the source that are not given here.
What was measured:
[1] = system: Staphylococcus aureus ATCC 6538; experiment: MIC by broth dilution assay, Staphylococcus aureus; assay type: cell-based; details: ATCC6538, 37° C. 18-22 hours, 4 experiments, inoculum 1.2-2.1 × 10^6 cfu/ml, range bacteriostatic-bactericide concentration, read-out: Sample's MIC
Method: (§1) Minimal inhibitory concentration (MIC) of each compound was tested by broth dilution assay.
(§2) • McFarland standard 0.5 • Falcon round-bottom 5 ml tubes • Disposable loops (1 μl and 10 μl) • Graduated pipettes (20 μl-1000 μl) • Disposable Petri dishes Media • Sterile normal saline • TSB (Tryptic Soy Broth) • TSA (Tryptic Soy Agar) Bacterial and Fungal strains • Salmonella enterica serovar Typhimurium ATCC 14028 • Staphylococcus aureus ATCC 6538 • Candida albicans ATCC 10231
(§3) Compounds 2, 3 and 4 were diluted in dimethyl sulfoxide (DMSO) at 10 mg/ml and were future 2-fold diluted for testing in TSB.
(§4) From a pure o/n culture, material from at least 3-4 colonies was chosen and suspended totally in 4 ml saline in tubes. The suspension was mixed.
(§5) The turbidity of inoculum was adjusted to match that of standard by comparing visually with the McFarland 0.5 standard using white paper with black lines as background.
(§6) The McFarland 0.5 suspension were diluted as follows for the species tested at this course:
Gr-pos.: 50 μl McFarl. 0.5 into 10 ml broth
(§7) The suspensions were used for inoculation within 15 minutes.
The Falcon round-bottom 5 ml tubes were inoculated with 500 μl of the inoculum suspension with 500 μl two-fold dilutions of antimicrobial agent using a graduated pipette […]
(§8) Minimal inhibitory concentration (MIC) was recorded as the lowest concentration of antimicrobial agent with no visible growth.

[2] = system: Salmonella enterica serovar Typhimurium ATCC 14028; experiment: MIC by broth dilution assay, Salmonella Typhimurium; assay type: cell-based; details: for MIC: Salmonella enterica, read-out: Sample's MIC
Method: as §1, §2, §3, §4, §5, §6
Gr-neg.: 10 μl McFarl. 0.5 into 10 ml broth
as §7
(§9) The Falcon round-bottom 5 ml tubes were inoculated with 500 μl of the inoculum suspension with 500 μl two-fold dilutions of antimicrobial agent using a graduated pipette
(§10) Tubes were sealed and incubated at 37° C. for 18-22 hours. This was done to avoid losing growth media and to avoid cross contamination.
(§11) McFarland 0.5 is approximately 10^8 CFU/ml. Standardization of inoculum is essential because the interpretation of the results is based on a certain inoculum.
(§12) Each tube contained approximately 5×10^5-1×10^6 CFU/ml after inoculation of bacteria and […] 5×10^3-1×10^4 CFU/ml of yeast.
(§13) Purity of the inoculum suspension was checked.
(§14) Growth in the 3 positive control tubes was checked.
as §8

[3] = system: Herpes Simplex virus-1 (HSV 1); experiment: HSV 1 spread and plaque assay in Vero cells
[4] = system: Candida albicans ATCC 10231; experiment: MIC by broth dilution assay, Candida albicans; assay type: cell-based; details: 4 experiments, inoculum 3-6.5 × 10^3 cfu/ml, range bacteriostatic-bactericide concentration; for Sample's MIC: 37° C. 18-22 hours; for MIC: ATCC10231, 37° C. 18-22 hours, read-out: Sample's MIC
Method: as §1, §2, §3, §4, §5, §6, §7, §9, §10, §11, §12, §13, §14, §8

[5] = Surfactant activity; assay type: physicochemical
[6] = pH of aqueous solution; assay type: physicochemical
[7] = system: Vaccinia virus (WR-VV); assay type: cell-based; set-up: dose or concentration left out as unconfirmed; details: BSC 40 cells pre-treated
[8] = in the presence of 100 μg/ml of the compounds
[9] = in the presence of the compounds

Molecule	MIC [1]	melting point	MIC [2]	HSV-1 infectivity reduced by [3, 8]	HSV-1 infectivity reduced by [3, 9]	Sample's MIC [4]	MIC [4]	Surfactant activity [5]	Aqueous solution pH [6]	inhibitory effect on HSV 1 spreading and plaque number ([3]; pre-treated, liquid and agar plaque assay, two days of infection, dose dependent)	inhibition of Vaccinia virus plaque formation [7]	Sample's MIC ([2]; Salmonella enterica serovar Typhimurium ATCC 14028, broth dilution, 37° C. 18-22 hours, 4 experiments, inoculum 5 × 10^3 cfu/ml, range bacteriostatic-bactericide concentration)
Cc1ccc(C(C)C)c(OC(=O)C[N+](C)(C)CCCCCCCCCC[N+](C)(C)CC(=O)Oc2cc(C(C)C)ccc2C)c1 [Compound 2, N^1-{2-[2-methyl-5-(propan-2-yl)phenoxy]-2-oxoethyl}-N^1,N^1,N^10,N^10-tetramethyl-N^10-{2-[5-methyl-2-(propan-2-yl)phenoxy]-2oxoethyl}decane-1,10-bis(aminium) dichloride]	31.2 to 62.5 µg/mL	92 to 96 °C	62.5 to 125 µg/mL	80%	50%	62.5-125* μg/ml	62.5 to 125 µg/mL					
Cc1ccc(C(C)C)c(OC(=O)C[N+](C)(C)CCCCCCCCCC[N+](C)(C)CCCCCCCCCC[N+](C)(C)CC(=O)Oc2cc(C(C)C)ccc2C)c1 [Compound 3, N^1-{{2-[2-methyl-5-(propan-2-yl)phenoxy]-(2-oxoethyldimethyl)azaniumyl bromide}decyl}-N^10-{2-[5-methyl-2-(propan-2-yl)phenoxy]-2oxoethyl}-N^1,N^1,N^1,N^10,N^10-tetramethyldecane-1,10-bis(aminium) dichloride]	15.6 to 31.2 µg/mL		31.2 to 62.5 µg/mL	80%	50%		31.2 to 62.5 µg/mL	Displays Surfactant Activity	7.2	strong inhibitory effect	none of compounds 2 or 3 inhibited Vaccinia virus (VV) plaque formation	
N^1-{2-[2-methyl-5-(propan-2-yl)phenoxy]-2-oxoethyl}-N^1,N^1,N^10,N^10-tetramethyl-N^10-{2-[5-methyl-2-(propan-2-yl)phenoxy]-2oxoethyl}decane-1,10-bis(aminium) dichloride [Compound 4]						31.25 to 62.5 µg/mL						31.25 to 62.5 µg/mL

From US10858308B2, “Compounds and compositions” (priority 2017, dated 2020)
